# Assay results from US11959086B2, “Dual transit peptides for targeting polypeptides” (BASF AGRO B.V., priority 2016, dated 2024).
# Columns and labels:
# [1] = tested on: Arabidopsis plants, construct hemF_tpFNR (SEQ ID NO 114); experiment: Tolerance of transgenic T1 Arabidopsis plants to herbicides, greenhouse (Tolerance Factor); type: in vivo, Arabidopsis thaliana
# [2] = tested on: transgenic Arabidopsis thaliana, transgene SEQ ID NO 128; experiment: Herbicide injury evaluation of Arabidopsis plants, greenhouse; type: in vivo; details: Table 3, scale 0-100
# [3] = tested on: transgenic Arabidopsis thaliana, transgene SEQ ID NO 121; experiment: as above; type: in vivo; details: Table 3, scale 0-100
# [4] = tested on: Wildtype/non-transgenic Arabidopsis thaliana; experiment: as above; type: in vivo; details: scale 0-100
# [5] = tested on: transgenic Arabidopsis thaliana, transgene SEQ ID NO 119; experiment: as above; type: in vivo; details: Table 3, scale 0-100
# [6] = tested on: empty vector-transformed leaf discs; experiment: PSII yield inhibition in tobacco leaf discs (chlorophyll fluorescence, imaging PAM); type: cell-based; details: Nicotiana benthamiana, 48 h, read-out: IC50 of PSII yield inhibition
# [7] = tested on: Arabidopsis plants, construct OPITE_PPO_wt_tpFNR (SEQ ID NO 121); experiment: Tolerance of transgenic T1 Arabidopsis plants to herbicides, greenhouse (Tolerance Factor); type: in vivo, Arabidopsis thaliana
# [8] = tested on: Arabidopsis plants, construct RHOMA_PPO_F420V_tpFNR (SEQ ID NO 124); experiment: as above; type: in vivo, Arabidopsis thaliana
# [9] = tested on: Arabidopsis plants, construct CHLSP_PPO_wt_tpFNR (SEQ ID NO 128); experiment: as above; type: in vivo, Arabidopsis thaliana
# [10] = tested on: Arabidopsis plants, construct hemF_tplAMATU_PPO2 (SEQ ID NO 115); experiment: as above; type: in vivo, Arabidopsis thaliana
# [11] = tested on: Arabidopsis plants, construct hemG_tpFNR (SEQ ID NO 117); experiment: as above; type: in vivo, Arabidopsis thaliana
# [12] = tested on: transgenic Arabidopsis thaliana, transgene SEQ ID NO 118; experiment: Herbicide injury evaluation of Arabidopsis plants, greenhouse; type: in vivo; details: scale 0-100
# [13] = tested on: transgenic Arabidopsis thaliana, transgene SEQ ID NO 120; experiment: as above; type: in vivo; details: Table 4, scale 0-100
# [14] = tested on: transgenic Arabidopsis thaliana, transgene SEQ ID NO 117; experiment: as above; type: in vivo; details: Table 3, scale 0-100
# [15] = tested on: Arabidopsis plants, construct RHOMA_PPO_wt_tpFNR (SEQ ID NO 123); experiment: Tolerance of transgenic T1 Arabidopsis plants to herbicides, greenhouse (Tolerance Factor); type: in vivo, Arabidopsis thaliana
# [16] = tested on: Arabidopsis plants, construct hemF_tpsAMATU_PPO2 (SEQ ID NO 116); experiment: as above; type: in vivo, Arabidopsis thaliana
# [17] = tested on: Arabidopsis plants, construct hemG_tplAMATU_PPO2 (SEQ ID NO 118); experiment: as above; type: in vivo, Arabidopsis thaliana
# [18] = tested on: Arabidopsis plants, construct RHOMA_PPO_wt_tpAMATU_PPO2 (SEQ ID NO 127); experiment: as above; type: in vivo, Arabidopsis thaliana
# [19] = tested on: Arabidopsis plants, construct hemG_tpsAMATU_PPO2 (SEQ ID NO 119); experiment: as above; type: in vivo, Arabidopsis thaliana
smiles,measurement,setting,value
"CC(C)N(C)S(=O)(=O)NC(=O)c1cc(-n2c(=O)cc(C(F)(F)F)n(C)c2=O)c(F)cc1Cl [Saflufenacil, saflufenacil]",Tolerance Factor,[1],1
same,Herbicide injury evaluation 14 days after herbicide treatment,"[2]; SEQ ID NO 128 D, 50 g ai/ha + 1% MSO",93
same,Herbicide injury evaluation 14 days after herbicide treatment,"[2]; SEQ ID NO 128 D, 150 g ai/ha + 1% MSO",97
same,Herbicide injury evaluation 14 days after herbicide treatment,"[2]; SEQ ID NO 128 D, 300 g ai/ha + 1% MSO",97
same,Herbicide injury evaluation 14 days after herbicide treatment,"[2]; SEQ ID NO 128 E, 50 g ai/ha + 1% MSO",97
same,Herbicide injury evaluation 14 days after herbicide treatment,"[2]; SEQ ID NO 128 E, 150 g ai/ha + 1% MSO",97
same,Herbicide injury evaluation 14 days after herbicide treatment,"[2]; SEQ ID NO 128 E, 300 g ai/ha + 1% MSO",97
same,Herbicide injury evaluation 14 days after herbicide treatment,"[3]; SEQ ID NO 121 G, 50 g ai/ha + 1% MSO",100
same,Herbicide injury evaluation 14 days after herbicide treatment,"[3]; SEQ ID NO 121 G, 150 g ai/ha + 1% MSO",100
same,Herbicide injury evaluation 14 days after herbicide treatment,"[3]; SEQ ID NO 121 G, 300 g ai/ha + 1% MSO",100
same,Herbicide injury evaluation 14 days after herbicide treatment,"[3]; SEQ ID NO 121 H, 50 g ai/ha + 1% MSO",100
same,Herbicide injury evaluation 14 days after herbicide treatment,"[3]; SEQ ID NO 121 H, 150 g ai/ha + 1% MSO",100
same,Herbicide injury evaluation 14 days after herbicide treatment,"[3]; SEQ ID NO 121 H, 300 g ai/ha + 1% MSO",100
same,Herbicide injury evaluation 14 days after herbicide treatment,"[4]; Table 3, 50 g ai/ha + 1% MSO",100
same,Herbicide injury evaluation 14 days after herbicide treatment,"[4]; Table 3, 150 g ai/ha + 1% MSO",100
same,Herbicide injury evaluation 14 days after herbicide treatment,"[4]; Table 3, 300 g ai/ha + 1% MSO",100
same,Herbicide injury evaluation 14 days after herbicide treatment,"[4]; Table 4, 50 g ai/ha + 1% MSO",100
same,Herbicide injury evaluation 14 days after herbicide treatment,"[4]; Table 4, 150 g ai/ha + 1% MSO",100
same,Herbicide injury evaluation 14 days after herbicide treatment,"[4]; Table 4, 300 g ai/ha + 1% MSO",100
same,Herbicide injury evaluation 14 days after herbicide treatment,"[5]; SEQ ID NO 119 A, 50 g ai/ha + 1% MSO",100
same,Herbicide injury evaluation 14 days after herbicide treatment,"[5]; SEQ ID NO 119 A, 150 g ai/ha + 1% MSO",100
same,Herbicide injury evaluation 14 days after herbicide treatment,"[5]; SEQ ID NO 119 A, 300 g ai/ha + 1% MSO",100
same,Herbicide injury evaluation 14 days after herbicide treatment,"[5]; SEQ ID NO 119 B, 50 g ai/ha + 1% MSO",100
same,Herbicide injury evaluation 14 days after herbicide treatment,"[5]; SEQ ID NO 119 B, 150 g ai/ha + 1% MSO",100
same,Herbicide injury evaluation 14 days after herbicide treatment,"[5]; SEQ ID NO 119 B, 300 g ai/ha + 1% MSO",100
same,IC50,[6],110 nM
same,Tolerance Factor,[7],14
same,Tolerance Factor,[8],1
same,Tolerance Factor,[9],640
same,Tolerance Factor,[10],1
same,Tolerance Factor,[11],332
same,Herbicide injury evaluation 14 days after herbicide treatment,"[12]; Table 3, SEQ ID NO 118 Q, 50 g ai/ha + 1% MSO",55
same,Herbicide injury evaluation 14 days after herbicide treatment,"[12]; Table 3, SEQ ID NO 118 Q, 150 g ai/ha + 1% MSO",58
same,Herbicide injury evaluation 14 days after herbicide treatment,"[12]; Table 3, SEQ ID NO 118 Q, 300 g ai/ha + 1% MSO",68
same,Herbicide injury evaluation 14 days after herbicide treatment,"[12]; Table 3, SEQ ID NO 118 R, 50 g ai/ha + 1% MSO",5
same,Herbicide injury evaluation 14 days after herbicide treatment,"[12]; Table 3, SEQ ID NO 118 R, 150 g ai/ha + 1% MSO",65
same,Herbicide injury evaluation 14 days after herbicide treatment,"[12]; Table 3, SEQ ID NO 118 R, 300 g ai/ha + 1% MSO",48
same,Herbicide injury evaluation 14 days after herbicide treatment,"[12]; Table 4, SEQ ID NO 118 Q, 50 g ai/ha + 1% MSO",63
same,Herbicide injury evaluation 14 days after herbicide treatment,"[12]; Table 4, SEQ ID NO 118 Q, 150 g ai/ha + 1% MSO",63
same,Herbicide injury evaluation 14 days after herbicide treatment,"[12]; Table 4, SEQ ID NO 118 Q, 300 g ai/ha + 1% MSO",65
same,Herbicide injury evaluation 14 days after herbicide treatment,"[12]; Table 4, SEQ ID NO 118 R, 50 g ai/ha + 1% MSO",38
same,Herbicide injury evaluation 14 days after herbicide treatment,"[12]; Table 4, SEQ ID NO 118 R, 150 g ai/ha + 1% MSO",45
same,Herbicide injury evaluation 14 days after herbicide treatment,"[12]; Table 4, SEQ ID NO 118 R, 300 g ai/ha + 1% MSO",60
same,Herbicide injury evaluation 14 days after herbicide treatment,"[13]; SEQ ID NO 120 J, 50 g ai/ha + 1% MSO",80
same,Herbicide injury evaluation 14 days after herbicide treatment,"[13]; SEQ ID NO 120 J, 150 g ai/ha + 1% MSO",83
same,Herbicide injury evaluation 14 days after herbicide treatment,"[13]; SEQ ID NO 120 J, 300 g ai/ha + 1% MSO",85
same,Herbicide injury evaluation 14 days after herbicide treatment,"[13]; SEQ ID NO 120 M, 50 g ai/ha + 1% MSO",95
same,Herbicide injury evaluation 14 days after herbicide treatment,"[13]; SEQ ID NO 120 M, 150 g ai/ha + 1% MSO",93
same,Herbicide injury evaluation 14 days after herbicide treatment,"[13]; SEQ ID NO 120 M, 300 g ai/ha + 1% MSO",88
same,Herbicide injury evaluation 14 days after herbicide treatment,"[14]; SEQ ID NO 117 C, 50 g ai/ha + 1% MSO",100
same,Herbicide injury evaluation 14 days after herbicide treatment,"[14]; SEQ ID NO 117 C, 150 g ai/ha + 1% MSO",98
same,Herbicide injury evaluation 14 days after herbicide treatment,"[14]; SEQ ID NO 117 C, 300 g ai/ha + 1% MSO",97
same,Herbicide injury evaluation 14 days after herbicide treatment,"[14]; SEQ ID NO 117 I, 50 g ai/ha + 1% MSO",94
same,Herbicide injury evaluation 14 days after herbicide treatment,"[14]; SEQ ID NO 117 I, 150 g ai/ha + 1% MSO",99
same,Herbicide injury evaluation 14 days after herbicide treatment,"[14]; SEQ ID NO 117 I, 300 g ai/ha + 1% MSO",95
same,Tolerance Factor,[15],1
same,Tolerance Factor,[16],1
same,Tolerance Factor,[17],2200
same,Tolerance Factor,[18],1
same,Tolerance Factor,[19],1
